Tests used:
HepG2 = assay: MTT test for inhibition of tumor cells, HepG2; type: cell-based; conditions: 48 h
HeLa = assay: MTT test for inhibition of tumor cells, HeLa; type: cell-based; conditions: 48 h
Protocol: HepG2, HeLa cell lines and human normal liver cells HL-7702 in a logarithmic growth period were centrifuged at 1000 rpm for 5 min, and the supernatant was discarded, the cells were suspended with a suitable amount of culture medium to adjust the cell concentration to 3.5×10^4/well, the cells were seeded in 96-well plates, and the following experimental groups were set:
100 μl of DMSO was added to each well, followed by shaking on a shaker for 30 min at 37° C., the absorbance (OD) was measured at 492 nm, and the MTT ratio was calculated as the OD value of drug group/OD value of negative control group.

HL-7702 = assay: MTT test on human normal hepatocytes HL-7702; type: cell-based; conditions: human normal hepatocytes HL-7702, MTT, 48 h
A549 = assay: IC50 against human lung cancer cell A549; type: cell-based; conditions: for antitumor activity on A549 compared with etoposide: vs etoposide
MCF7 = assay: IC50 against breast cancer cell MCF7; type: cell-based, human; conditions: vs etoposide
MRC-5 = assay: IC50 against human embryonic lung cells MRC-5; conditions: for toxicity on normal cell line MRC-5 compared with etoposide: vs etoposide
HMEC = assay: IC50 against human mammary epithelial cells HMEC; conditions: for toxicity on normal cell line HMEC compared with etoposide: vs etoposide
H8 = assay: IC50 against human cervical immortalized cells H8; conditions: for toxicity on normal cell line H8 compared with etoposide: vs etoposide

Molecule	IC50 (HepG2) [µM]	IC50 (HeLa) [µM]	IC50 (HL-7702) [µM]	further results
4β-S-(6-chlorobenzoxazol-2)-4′-demethylepipodophyllotoxin [Compound 16]	22.3 ± 1.46	32.3 ± 1.87	68.3 ± 4.5	–
COc1cc([C@@H]2c3cc4c(cc3[C@@H](Sc3nc5cc(F)ccc5o3)[C@H]3COC(=O)[C@H]23)OCO4)cc(OC)c1O [Compound 10, 4β-S-(5-fluorobenzoxazol-2)-4′-demethylepipodophyllotoxin]	1.55 ± 0.29	1.49 ± 0.14	2000 ± 12.8	IC50 (A549; human lung cancer cell A549): 2.34 ± 0.16 µM; antitumor activity on A549 compared with etoposide (A549): significantly improved; antitumor activity on MCF7 compared with etoposide (MCF7): significantly improved; IC50 (MRC-5; read-out: IC50 MRC-5, normal cell line, human embryonic lung cells MRC-5): 348.9 ± 3.1 µM; toxicity on normal cell line MRC-5 compared with etoposide (MRC-5): significantly lower; IC50 (HMEC; read-out: IC50 HMEC, normal cell line, human mammary epithelial cells HMEC): 323.4 ± 3.21 µM; toxicity on normal cell line HMEC compared with etoposide (HMEC): significantly lower; IC50 (H8; read-out: IC50 H8, normal cell line, human cervical immortalized cells H8): 518.9 ± 1.9 µM; toxicity on normal cell line H8 compared with etoposide (H8): significantly lower
COc1cc([C@@H]2c3cc4c(cc3[C@@H](Sc3ccc5ccccc5c3)[C@H]3COC(=O)[C@H]23)OCO4)cc(OC)c1O [Compound 20, 4β-S-(naphthalen-2)-4′-demethylepipodophyllotoxin]	6.02 ± 0.25	5.54 ± 0.3	76.8 ± 2.11	–
COc1cc([C@@H]2c3cc4c(cc3[C@@H](Sc3nc5ncccc5[nH]3)[C@H]3COC(=O)[C@H]23)OCO4)cc(OC)c1O [Compound 22, 4β-S-(1H-imidazo[4,5-B]pyridin-2)-4′-demethylepipodophyllotoxin]	8.31 ± 0.43	> 100	33.5 ± 3.25	–
4β-S-(5-phenylbenzoxazol-2)-4′-demethylepipodophyllotoxin [Compound 12]	10.2 ± 0.46	> 100	56.8 ± 1.32	–
COc1cc(C2c3cc4c(cc3C(O)C3COC(=O)C23)OCO4)cc(OC)c1O (centres unmarked) [4′-Demethylepipodophyllotoxin, 4′-demethylepipodophyllotoxin, reference compound]	49.32 ± 0.38	63.09 ± 0.49	52.9 ± 0.85	–
4β-S-(3-phenyl-1,3,4-thiadiazol-2(3H)thione potassium salt-5)-4′-demethylepipodophyllotoxin [Compound 26]	5.7 ± 0.33	48.49 ± 0.38	–	–
COc1cc([C@@H]2c3cc4c(cc3[C@@H](Sc3nnnn3-c3ccccc3)[C@H]3COC(=O)[C@H]23)OCO4)cc(OC)c1O [Compound 24, 4β-S-(1-phenyltetrazol-5)-4′-demethylepipodophyllotoxin]	59.69 ± 0.31	9.73 ± 0.11	71 ± 3.67	–
COc1cc([C@@H]2c3cc4c(cc3[C@@H](Sc3nc5cc(F)ccc5s3)[C@H]3COC(=O)[C@H]23)OCO4)cc(OC)c1O [Compound 8, 4β-S-(5-fluorobenzothiazol-2)-4′-demethylepipodophyllotoxin]	1.49 ± 0.12	2.3 ± 0.12	966.2 ± 7.31	antitumor activity on A549 compared with etoposide (A549): significantly improved; antitumor activity on MCF7 compared with etoposide (MCF7): significantly improved; toxicity on normal cell line MRC-5 compared with etoposide (MRC-5): significantly lower; toxicity on normal cell line HMEC compared with etoposide (HMEC): significantly lower; toxicity on normal cell line H8 compared with etoposide (H8): significantly lower
COc1cc([C@@H]2c3cc4c(cc3[C@@H](Sc3ccc(F)cc3)[C@H]3COC(=O)[C@H]23)OCO4)cc(OC)c1O [Compound 6, 4β-S-(4-fluorobenzene-1)-4′-demethylepipodophyllotoxin]	4.24 ± 0.97	55.28 ± 0.21	51 ± 0.88	–
COc1cc(C2c3cc4c(cc3C(Sc3nc5cc(F)ccc5o3)C3COC(=O)C23)OCO4)cc(OC)c1OC (stereo not drawn) [Compound 9, 4β-S-(5-Fluorobenzoxazol-2)-podophyllotoxin]	–	–	> 1000	–

— patent US20200216449A1, “4-Sulfur Substituted Podophyllotoxin Derivative and Preparation Method Therefor and Use Thereof” (priority 2017, published 2020)
